Patent publication US6740760B2, “D-proline derivatives” (Hoffmann-La Roche Inc., priority 1997, dated 2004)

Legend:
B. fragilis = details: disclosed in WO 97/10225; cited from earlier work

Compound	antibacterial activity against B. fragilis (B. fragilis)	melting point [°C]
C[C@@H](CS)C(=O)N1CCC[C@@H]1C(=O)O [1-[(R)3-Mercapto-2-methyl-propionyl]-(R)-pyrrolidine-2-carboxylic acid]	antibacterial activity	–
O=C(O)[C@H]1CCCN1C(=O)Cc1ccc(CC(=O)N2CCC[C@@H]2C(=O)O)cc1	–	210 to 214
C[C@H](CS)C(=O)N1CCC[C@@H]1C(=O)O [1-[(S)3-Mercapto-2-methyl-propionyl]-(R)-pyrrolidine-2-carboxylic acid]	antibacterial activity	–
